Experiment [1] has as its system S. aureus ATCC TCH1516 skin infection. The experiment is described as follows: Topical treatment of incision MRSA skin infection (Trial 1). In kind it is in vivo, BALB/c mice. Conditions: for Group mean (±SE) of log CFU/infection site: 10 mg/kg/day topical, twice daily for 6 days from 24 h post-infection, n = 6, vehicle control 5.33 ± 0.64. As for the experimental part: Trial 1: In this trial, the infection model was performed following methods that were previously reported ([Kugelberg et al., 2005]; [Guo et al., 2013]; [Simonetti et al., 2020]). […] Seven groups (n = 6 mice/group) were acclimatized to the environment for at least 7 days before the start of the experiment. Once the hair on the dorsum of the mice was shaved, a 1 cm incision was made and a 50 μl suspension of S. aureus ATCC TCH1516 in PBS, containing 2 × 10^7 CFUs, was applied directly to the incision. Mice were housed individually until inoculum dried at the incision site (Day (D) 0). Approximately 24 h later (D1), treatment was applied topically twice daily for 6 days. […] Another group received the no-drug vehicle control (0.6% noble agar in citrate buffer). Weights of mice were measured at least once per day, while behavior and the wounds were monitored multiple times per day. Mice were sacrificed 1 day after the last topical treatment (D7). Dermal tissues at the infected sites were sampled and homogenized in sterile PBS. The homogenates were serially diluted and plated on THyex agar for determining CFUs.

Experiment [2] deals with S. aureus ATCC 33591 (MRSA). The experiment is described as follows: MIC in broth (CLSI M07-A8) against MRSA 33591. The format is cell-based, Staphylococcus aureus. As for the experimental part: (§1) Preparation of the antimicrobial agent and bacterial inoculum for MICs was performed by following the method described by the Clinical and Laboratory Standards Institute (CLSI; M07-A8; [CLSI, 2018]) and as previously reported by our group ([Chen et al., 2013]; [Escano et al., 2017]; [Geng and Smith, 2018]). […] A single colony from an overnight culture of S. aureus was inoculated in 10 ml of THyex broth (30 g/L Todd Hewitt broth, 3 g/L yeast extract). The inoculum was placed in a shaking incubator at 37°C and 280 rpm and grown to an OD600 of 0.6–0.8. The culture broth was then diluted to an OD600 of 0.132, after which a 20-fold dilution in fresh broth was performed resulting in a ~5 × 10^5 CFU/ml cell density. Mu1140 and Mu1140 analogs were solubilized in dimethyl sulfoxide (DMSO) at a concentration of 1 mg/ml as the stock solution. […] The same volume of DMSO was added to all test samples including the no-drug control. The cultures were placed in a shaking incubator at 37°C and 200 rpm (Stuart orbital incubator SI500). A 100 μl sample from each culture was taken at each time point of 0, 0.25, 0.5, 0.75, 1, 1.5, 2, 4, 8, 18, and 24 h and was serially diluted in fresh medium before being spread on THyex agar plates (30 g/L Todd Hewitt broth, 3 g/L yeast extract, 15 g/L agar) for determining the CFUs. The plates were allowed to grow for 24 h at 37°C before the colony-forming units (CFUs) were counted. The CFU/ml for each time-point at each drug concentration was determined using at least two independent cultures. Plates having 30 to 300 colonies were used for CFU measurements.

In experiment [3] the test system is S. aureus ATCC33591 skin infection. The experiment is described as follows: Subcutaneous treatment of subcutaneous MRSA skin infection (Trial 2). The format is in vivo, BALB/c mice. To be noted: three times per day for 3 days from 48 h post-infection, n = 8. On the procedure:
Trial 2: In this trial, the infection model was performed following methods that were previously reported ([Guo et al., 2013]; [Dejani et al., 2016]). […] Mice were acclimatized to the environment for at least 7 days before initiating experiments. After shaving the hair on the dorsum of the mice, a 50 μl suspension of S. aureus ATCC33591 in PBS, containing 1.5 × 10^7 CFUs, was injected subq (D0). As noted in trial 1, no bleeding was observed during all injections. […] Mice were separated into four groups (n = 8 for treatment and no-drug vehicle control groups; D2). […] The last group received the no-drug vehicle control (sterile water with 20% DMSO). Treatments were administered three times per day to the mice through a 3-point subq injection around the scab with the needle pointed toward the center of the wound. Weights of mice were measured at least once per day, while behavior and the wound sites were monitored multiple times per day. Mice were sacrificed approximately 24-h after the last subq treatment (D6). Dermal tissues at the infected sites were sampled and homogenized in sterile PBS. The homogenates were serially diluted and plated on THyex agar for determining CFUs.

Another experiment relates to clinical MRSA isolates. The experiment is described as follows: MIC in broth against a panel of clinical MRSA isolates. To be noted: Staphylococcus aureus. The format is cell-based.
Experiment [4] relates to MRSA (S. aureus ATCC 33591) systemic infection. The experiment is described as follows: In vivo MRSA systemic infection model (survival). To be noted: single 10 mg/kg i.v. dose 1 h post-infection.
Procedure: The vehicle (saline with 15% DMSO) served as the no-drug control group of mice. Each mouse was monitored every 4 h during the first 2 days post-infection (day 0 to day 2), and every 8 h from day 2 to day 5.
For a further experiment, the system named is S. aureus ATCC 33591. The experiment is described as follows: Time-kill study (kill kinetics). In kind it is cell-based, Staphylococcus aureus. As for the experimental part:
as §1

The subject of experiment [5] is S. aureus ATCC33591 skin infection. The experiment is described as follows: Intravenous treatment of an in vivo MRSA acute skin infection. Set-up: species or system BALB/c mice. As for the experimental part:
Mice were acclimatized to the environment for at least 7 days before initiating experiments. After shaving the hair on the dorsum of the mice, a 50 μl suspension of S. aureus ATCC33591 in PBS, containing 1.5 × 10^7 CFUs, was injected subcutaneously (subq). No bleeding was observed during all injections. […] Mice were separated into four groups (n = 8 for the treatment groups and n = 6 for the control). […] The last group received the no-drug vehicle control (PBS with 5% DMSO). Weights of mice were measured at least once per day, while behavior and the wounds were monitored multiple times per day. Mice were sacrificed approximately 24-h after the last i.v. treatment (Day 6; D6). Dermal tissues at the infected sites were sampled and homogenized in sterile PBS. The homogenates were serially diluted and plated on THyex agar for determining CFUs.

[6] abbreviates: Staphylococcus aureus, MRSA 33591, in broth, read-out: MIC.
Setting [7] is: 10 mg/kg/day i.v. for 5 days, n = 8.

Values after ≈ are worked out from the molar mass of the structure shown. Values joined by “and” are separate entries in the source; they are usually repeats but may differ in a detail not shown here. Equal values may be shown once. Where a name gives a salt, the structure may show the parent alone. Read-outs that look alike come from different tables or passages of the source.

As for `CC(=O)O[C@H]1C[C@@]2(C)[C@@H](C[C@@H](O)[C@H]3[C@@]4(C)CC[C@@H](O)[C@@H](C)[C@@H]4CC[C@@]32C)/C1=C(\CCC=C(C)C)C(=O)O` [Fusidic acid], the “log reduction in bacterial load compared to the vehicle control group” value in experiment [1] (10 mg/kg/day topical for 6 days, not statistically significant) is on record as 2.17 log. The “Group mean (±SE) of log CFU/infection site” value in experiment [1] was determined as 3.16 ± 0.50 log CFU/infection site; in experiment [1] (listed as fusidic acid) it was 3.16 log CFU/infection site. Moreover, the MIC – broadly, the lowest concentration found to suppress growth – in experiment [2] (setting [6]) was found to be 1 µg/mL (≈ 1.94 µM).

For `CC(=O)NC[C@H]1CN(c2ccc(N3CCOCC3)c(F)c2)C(=O)O1` [Linezolid, linezolid], the “log reduction in CFUs (mean difference to vehicle control)” value in experiment [3] (75 mg/kg/day subq) is listed as 0.6 log; in experiment [3] (75 mg/kg/day subq, listed as linezolid), 0.60 log. The MIC in experiment [2] (setting [6]) stood at 1 µg/mL (≈ 2.96 µM).

Take `CN[C@H](CC(C)C)C(=O)N[C@H]1C(=O)N[C@@H](CC(N)=O)C(=O)N[C@H]2C(=O)N[C@H]3C(=O)N[C@H](C(=O)N[C@H](C(=O)O)c4cc(O)cc(O)c4-c4cc3ccc4O)[C@H](O)c3ccc(c(Cl)c3)Oc3cc2cc(c3O[C@@H]2O[C@H](CO)[C@@H](O)[C@H](O)[C@H]2O[C@H]2C[C@](C)(N)[C@H](O)[C@H](C)O2)Oc2ccc(cc2Cl)[C@H]1O` [Vancomycin, Vancomycin hydrochloride]: the MIC with clinical MRSA isolates (MRSA / USA300, strain USA300, in broth) turned out to be 2 µg/mL; in the experiment on clinical MRSA isolates (MRSA, strain 602, in broth), 2 µg/mL; against clinical MRSA isolates (MRSA, strain 611, in broth), 2 µg/mL; in the experiment on clinical MRSA isolates (MRSA, strain 616, in broth) it was 2 µg/mL; in the experiment on clinical MRSA isolates (MRSA, strain 631, in broth), 2 µg/mL; in the experiment with clinical MRSA isolates (MRSA, strain 640, in broth), 1 µg/mL. Moreover, the MIC in the experiment on clinical MRSA isolates (MRSA, strain 641, in broth) worked out at 2 µg/mL; in the experiment with clinical MRSA isolates (MRSA, strain 644, in broth), 2 µg/mL; in the experiment with clinical MRSA isolates (MRSA, strain 30476, in broth), 2 µg/mL; with clinical MRSA isolates (MRSA, strain 31225, in broth) it was 1 µg/mL; against clinical MRSA isolates (MRSA, strain 31258, in broth) it was 1 µg/mL; against clinical MRSA isolates (MRSA, strain CA347, in broth), 2 µg/mL. The MIC was found to be 4 µg/mL in the experiment with clinical MRSA isolates (MRSA, strain CA513, in broth); 2 µg/mL against clinical MRSA isolates (MRSA, strain CA-409, in broth); 2 µg/mL with clinical MRSA isolates (MRSA, strain CO-34, in broth); 4 µg/mL against clinical MRSA isolates (MRSA, strain GA442, in broth); 2 µg/mL in the experiment with clinical MRSA isolates (MRSA, strain HFH30364, in broth); 1 µg/mL in the experiment with clinical MRSA isolates (MRSA, strain HFH30522, in broth). In addition, the MIC was found to be 2 µg/mL with clinical MRSA isolates (MRSA, strain N315, in broth); 0.5 µg/mL with clinical MRSA isolates (MRSA, strain SAEH06, in broth); 2 µg/mL in experiment [2] (Staphylococcus aureus). Also, the “survival at 12 h post-infection” value in experiment [4] was 75.0%. In experiment [4], the “survival at 24 h post-infection” value was 50%. Also, in the experiment with S. aureus ATCC 33591 (0.5× MIC), the “reduction in viable cells” value is “negligible differences between the vehicle control and the treatment groups”. Moreover, the “time needed for a 2-log reduction in CFUs” value in the experiment on S. aureus ATCC 33591 (1× and 2× MIC) stood at 8 hours. For the same compound, the “time until viable cell counts dropped below the detection limit” value in the experiment on S. aureus ATCC 33591 (2× MIC) is “more than 8 h”. Also, the “viable cells at 18 and 24 h post-administration” value in the experiment with S. aureus ATCC 33591 (2× MIC) is recorded as “no viable cells”. Also, the “effect on bacterial load at the skin lesion site” value in experiment [5] (setting [7]) is on record as “did not have any significant effect on the bacterial load”; in experiment [5] (10 mg/kg/day i.v. for 5 days, n = 8, listed as vancomycin) it was “did not show any statistical significance to vehicle control”.

On to daptomycin, for which the “effect on bacterial load at the lesion site” value in experiment [5] (25 mg/kg i.v. dose, same experimental conditions, data not shown) is “no impact on the bacterial load”.

mutacin 1140 [Mu1140]: the “log reduction in CFUs (mean difference to vehicle control)” value in experiment [3] (25 mg/kg/day subq) came out at 0.78 log. Moreover, the “Group mean (±SE) of log CFU/infection site” value in experiment [1] is 5.23 log CFU/infection site and 5.23 ± 0.93 log CFU/infection site. Also, the minimal inhibitory concentration (MIC) in experiment [2] (MRSA 33591, in broth) worked out at 0.5 µg/mL. In experiment [2] (S. aureus 33591), the “MIC compared to fusidic acid and linezolid” value is recorded as “two-fold lower”; the “MIC compared to vancomycin” value was “four-fold lower”. In experiment [4], the “survival at 12 h post-infection” value turned out to be 100% and the “survival at 24 h post-infection” value was 83.3%. Besides, the “effect on bacterial load at the skin lesion site” value in experiment [5] (setting [7]) is given as “statistically significant reduction in CFUs”. Also, the “mean difference in bacteria load to the vehicle control group” value in experiment [5] (10 mg/kg/day i.v. for 5 days, Cohen's d = 1.27, p = 0.0265) amounted to 0.61 log CFU. Further, the “bacteria count at the lesion” value in experiment [5] (10 mg/kg/day i.v. twice daily for 5 days from 48 h post-infection, n = 8, vehicle control 7.82) is listed as 7.21 log CFU.

The record behind these values is publication PMC9794991, “Evaluation of analogs of mutacin 1140 in systemic and cutaneous methicillin-resistant Staphylococcus aureus infection models in mice” (Frontiers in Microbiology, 2022).
